This passage reports IC50 results from patent US20250223277A1, “COMPLEMENT FACTOR B INHIBITORS AND USES THEREOF” (Novartis AG, priority 2022, published 2025).

The structures appear in SMILES notation. A value given as a limit tells only on which side of the number the result lay.

Sequence of Recombinant human factor B (P00751 26-764): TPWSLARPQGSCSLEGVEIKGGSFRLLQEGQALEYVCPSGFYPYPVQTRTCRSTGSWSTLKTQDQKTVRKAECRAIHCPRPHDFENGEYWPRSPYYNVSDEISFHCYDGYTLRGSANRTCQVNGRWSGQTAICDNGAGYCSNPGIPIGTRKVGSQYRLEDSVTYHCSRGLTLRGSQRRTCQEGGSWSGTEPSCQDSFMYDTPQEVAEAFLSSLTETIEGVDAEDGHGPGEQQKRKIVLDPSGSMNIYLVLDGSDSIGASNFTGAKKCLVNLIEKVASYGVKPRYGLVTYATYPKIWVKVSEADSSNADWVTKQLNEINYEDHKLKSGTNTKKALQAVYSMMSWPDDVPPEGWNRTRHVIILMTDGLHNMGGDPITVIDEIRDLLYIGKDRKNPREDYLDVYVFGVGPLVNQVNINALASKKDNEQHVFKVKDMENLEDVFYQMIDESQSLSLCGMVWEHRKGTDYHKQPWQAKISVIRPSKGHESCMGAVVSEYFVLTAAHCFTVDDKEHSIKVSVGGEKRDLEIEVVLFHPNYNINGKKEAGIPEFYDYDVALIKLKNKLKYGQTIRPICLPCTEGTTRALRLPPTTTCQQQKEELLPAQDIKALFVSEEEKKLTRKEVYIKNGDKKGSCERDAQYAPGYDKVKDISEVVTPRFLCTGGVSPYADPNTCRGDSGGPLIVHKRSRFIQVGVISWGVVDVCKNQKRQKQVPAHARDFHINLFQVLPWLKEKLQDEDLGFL

The test has as its target Recombinant human factor B (Homo sapiens (Human), UniProt P00751). Kind of test: Human Complement Factor B TR-FRET Assay. The format is binding. The following applies: assay of Biological Example 2; read-out: hFactor-B TR-FRET Qualified IC50. The method, then: The time-gated decrease in fluorescence intensity related to the competition between labeled and unlabeled factor B ligands was recorded at both 620 nm and 665 nm, 70 us after excitation at 337 nm using a microplate spectrofluorimeter.
In general terms: TR-FRET usually uses a lanthanide donor and a delayed reading to cut background.
Take `Cc1cc(C)c2[nH]ccc2c1C[C@@H]1CCN(CC2(F)COC2)C[C@H]1c1ccc(C(=O)O)cc1` [Ex-17, 4-((3R,4R)-4-((5,7-dimethyl-1H-indol-4-yl)methyl)-1-((3-fluorooxetan-3-yl)methyl)piperidin-3-yl)benzoic acid]: the IC50 – broadly, the point on the concentration scale where inhibition reaches its midpoint – was less than 0.1 µM.

Regarding `Cc1cc(C)c2[nH]ccc2c1C[C@@H]1CCN(CCC(F)F)CC[C@H]1c1ccc(C(=O)O)cc1` [Ex-32, 4-((4R,5R)-1-(3,3-difluoropropyl)-5-((5,7-dimethyl-1H-indol-4-yl)methyl)azepan-4-yl)benzoic acid], the IC50 was less than 1 µM. With `Cc1cc(C)c2[nH]ccc2c1C[C@@H]1CCN(C)C[C@H]1c1ccc(C#N)cc1` [Ex-44, 4-((3R,4R)-4-((5,7-dimethyl-1H-indol-4-yl)methyl)-1-methylpiperidin-3-yl)benzonitrile], the IC50 is less than 1 µM.

With `Cc1cc(C)c2[nH]ccc2c1C[C@@H]1CCN(C)C[C@H]1c1ccc(-n2cccn2)cc1` [Ex-46, 4-(((3R,4R)-3-(4-(1H-pyrazol-1-yl)phenyl)-1-methylpiperidin-4-yl)methyl)-5,7-dimethyl-1H-indole], the IC50 was less than 0.1 µM. Then `Cc1cc(Cl)c2[nH]ccc2c1C[C@@H]1CCN(C)C[C@H]1c1ccc(C(=O)O)cc1` [Ex-38, 4-((3R,4R)-4-((7-chloro-5-methyl-1H-indol-4-yl)methyl)-1-methylpiperidin-3-yl)benzoic acid], with less than 0.1 µM. Turning to `Cc1cc(C)c2[nH]ccc2c1C[C@@H]1CCN(C)C[C@H]1c1ccc(C(=O)O)cc1` [Ex-8, 4-((3R,4R)-4-((5,7-dimethyl-1H-indol-4-yl)methyl)-1-methylpiperidin-3-yl)benzoic acid], the IC50 was less than 0.1 µM. Then `Cc1cc(C)c2[nH]ccc2c1C[C@@H]1CCN(CC(F)(F)F)C[C@H]1c1ccc(-c2nnn[nH]2)cc1` [Ex-43, 4-(((3R,4R)-3-(4-(1H-tetrazol-5-yl)phenyl)-1-(2,2,2-trifluoroethyl)piperidin-4-yl)methyl)-5,7-dimethyl-1H-indole], with less than 0.1 µM; and `COCCN1CC[C@@H](Cc2c(C)cc(C)c3[nH]ccc23)[C@H](c2ccc(C(=O)O)cc2)C1` [Ex-14, 4-((3R,4R)-4-((5,7-dimethyl-1H-indol-4-yl)methyl)-1-(2-methoxyethyl)piperidin-3-yl)benzoic acid], with less than 0.1 µM. With `Cc1cc(C)c2[nH]ccc2c1C[C@@H]1CN(C)C[C@H]1c1ccc(-c2nnn[nH]2)cc1` [Ex-60, 4-(((3S,4R)-4-(4-(2H-tetrazol-5-yl)phenyl)-1-methylpyrrolidin-3-yl)methyl)-5,7-dimethyl-1H-indole] the figure was less than 0.1 µM; with `Cc1cc(C)c2[nH]ccc2c1C[C@@H]1CCN(CC(F)(F)F)C[C@H]1c1ccc(C#N)cc1` [Ex-45, 4-((3R,4R)-4-((5,7-dimethyl-1H-indol-4-yl)methyl)-1-(2,2,2-trifluoroethyl)piperidin-3-yl)benzonitrile], less than 30 µM. With `Cc1cc(C2CC2)c(C[C@@H]2CCN(CC(F)(F)F)C[C@H]2c2ccc(C(=O)O)cc2)c2cc[nH]c12` [Ex-3, 4-((3R,4R)-4-((5-cyclopropyl-7-methyl-1H-indol-4-yl)methyl)-1-(2,2,2-trifluoroethyl)piperidin-3-yl)benzoic acid] the figure was less than 0.1 µM; with `Cc1cc(C)c2[nH]ccc2c1C[C@@H]1CCN(CC(F)(F)F)C[C@H]1c1ccc(-n2cccn2)cc1` [Ex-47, 4-(((3R,4R)-3-(4-(1H-pyrazol-1-yl)phenyl)-1-(2,2,2-trifluoroethyl)piperidin-4-yl)methyl)-5,7-dimethyl-1H-indole], less than 1 µM. Consider `Cc1cc(C)c2[nH]ccc2c1C[C@@H]1CCN([C@H]2C[C@H](F)C2)C[C@H]1c1ccc(C(=O)O)cc1` [Ex-22, 4-((3R,4R)-4-((5,7-dimethyl-1H-indol-4-yl)methyl)-1-((1r,3R)-3-fluorocyclobutyl)piperidin-3-yl)benzoic acid], for which the IC50 was less than 0.1 µM. With `Cc1cc(C)c2[nH]ccc2c1C[C@H]1CCN(C)C[C@@H]1c1ccc(C(=O)O)cc1` [Ex-9] the figure was less than 30 µM. On to `Cc1cc(C)c2[nH]ccc2c1C[C@@H]1CN(CC(F)(F)F)C[C@H]1c1ccc(C(=O)O)cc1` (racemic) [Ex-26, 4-(4-((5,7-dimethyl-1H-indol-4-yl)methyl)-1-(2,2,2-trifluoroethyl)pyrrolidin-3-yl)benzoic acid], for which the 50% inhibitory concentration (IC50) was less than 30 µM. Then `Cc1cc(C)c2[nH]cc(Cl)c2c1C[C@@H]1CCN(C)C[C@H]1c1ccc(C(=O)O)cc1` [Ex-39, 4-((3R,4R)-4-((3-chloro-5,7-dimethyl-1H-indol-4-yl)methyl)-1-methylpiperidin-3-yl)benzoic acid], with less than 0.1 µM; and `Cc1cc(C2CC2)c(C[C@H]2CCN(CC(F)(F)F)C[C@@H]2c2ccc(C(=O)O)cc2)c2cc[nH]c12` [Ex-4], with less than 30 µM; and `Cc1cc(C)c2[nH]ccc2c1C[C@@H]1CCN(CCC(F)F)C[C@H]1c1ccc(-n2cccn2)cc1` [Ex-48, 4-(((3R,4R)-3-(4-(1H-pyrazol-1-yl)phenyl)-1-(3,3-difluoropropyl)piperidin-4-yl)methyl)-5,7-dimethyl-1H-indole], with less than 0.1 µM. With `COc1cc(C)c2[nH]ccc2c1C[C@@H]1CCN(CC(F)(F)F)C[C@H]1c1ccc(C(=O)O)cc1` [Ex-5, 4-((3R,4R)-4-((5-methoxy-7-methyl-1H-indol-4-yl)methyl)-1-(2,2,2-trifluoroethyl)piperidin-3-yl)benzoic acid] the figure was less than 1 µM; with `CN1CC[C@@H](Cc2c(Cl)cc(Cl)c3[nH]ccc23)[C@H](c2ccc(C(=O)O)cc2)C1` [Ex-37, 4-((3R,4R)-4-((5,7-dichloro-1H-indol-4-yl)methyl)-1-methylpiperidin-3-yl)benzoic acid], less than 0.1 µM; with `CCN1C[C@@H](Cc2c(C3CC3)cc(C)c3[nH]ccc23)[C@H](c2ccc(-c3nnn[nH]3)cc2)C1` (racemic) [Ex-61, 4-((4-(4-(1H-tetrazol-5-yl)phenyl)-1-ethylpyrrolidin-3-yl)methyl)-5-cyclopropyl-7-methyl-1H-indole], less than 0.1 µM. With `Cc1cc(C)c2[nH]ccc2c1C[C@@H]1CCN(C)C[C@H]1c1ccc(-c2nnn[nH]2)cc1` [Ex-42, 4-(((3R,4R)-3-(4-(1H-tetrazol-5-yl)phenyl)-1-methylpiperidin-4-yl)methyl)-5,7-dimethyl-1H-indole] the figure was less than 0.1 µM; with `CCN1CC[C@@H](Cc2c(C)cc(C)c3[nH]ccc23)[C@H](c2ccc(C(=O)O)cc2)C1` [Ex-10, 4-((3R,4R)-4-((5,7-dimethyl-1H-indol-4-yl)methyl)-1-ethylpiperidin-3-yl)benzoic acid], less than 0.1 µM; with `CCN1CCC[C@@H](Cc2c(C)cc(C)c3[nH]ccc23)[C@H](c2ccc(C(=O)O)cc2)C1` [Ex-29, 4-((3R,4S)-4-((5,7-dimethyl-1H-indol-4-yl)methyl)-1-ethylazepan-3-yl)benzoic acid], less than 0.1 µM.

`Cc1cc(F)c(C[C@@H]2CCN(C)C[C@H]2c2ccc(C(=O)O)cc2)c2cc[nH]c12` [Ex-35, 4-((3R,4R)-4-((5-fluoro-7-methyl-1H-indol-4-yl)methyl)-1-methylpiperidin-3-yl)benzoic acid]: the IC50 was less than 0.1 µM.

`Cc1cc(C)c2[nH]ccc2c1C[C@@H]1CCN(CC(F)(F)F)C[C@H]1c1ccc(C(=O)O)cc1` [Ex-1, 4-((3R,4R)-4-((5,7-dimethyl-1H-indol-4-yl)methyl)-1-(2,2,2-trifluoroethyl)piperidin-3-yl)benzoic acid]: the IC50 is less than 0.1 µM. Then `Cc1cc(C)c2[nH]ccc2c1C[C@@H]1CCCN(C)C[C@H]1c1ccc(C(=O)O)cc1` [Ex-27, 4-((3R,4S)-4-((5,7-dimethyl-1H-indol-4-yl)methyl)-1-methylazepan-3-yl)benzoic acid], with less than 0.1 µM; and `Cc1cc(Cl)c(C[C@@H]2CCN(C)C[C@H]2c2ccc(C(=O)O)cc2)c2cc[nH]c12` [Ex-36, 4-((3R,4R)-4-((5-chloro-7-methyl-1H-indol-4-yl)methyl)-1-methylpiperidin-3-yl)benzoic acid], with less than 0.1 µM; and `Cc1cc(C)c2[nH]ccc2c1C[C@@H]1CCN(C2COC2)C[C@H]1c1ccc(C(=O)O)cc1` [Ex-21, 4-((3R,4R)-4-((5,7-dimethyl-1H-indol-4-yl)methyl)-1-(oxetan-3-yl)piperidin-3-yl)benzoic acid], with less than 1 µM. Then `Cc1ccc(C[C@@H]2CCN(C)C[C@H]2c2ccc(C(=O)O)cc2)c2cc[nH]c12` [Ex-33, 4-((3R,4R)-1-methyl-4-((7-methyl-1H-indol-4-yl)methyl)piperidin-3-yl)benzoic acid], with less than 0.1 µM.

`CCCN1CC[C@@H](Cc2c(C)cc(C)c3[nH]ccc23)[C@H](c2ccc(C(=O)O)cc2)C1` [Ex-20, 4-((3R,4R)-4-((5,7-dimethyl-1H-indol-4-yl)methyl)-1-propylpiperidin-3-yl)benzoic acid]: the IC50 was less than 0.1 µM. Then `Cc1cc(C2CC2)c(C[C@@H]2CN(C)C[C@H]2c2ccc(C(=O)O)cc2)c2cc[nH]c12` [Ex-59, 4-((3R,4S)-4-((5-cyclopropyl-7-methyl-1H-indol-4-yl)methyl)-1-methylpyrrolidin-3-yl)benzoic acid], with less than 0.1 µM; and `Cc1cc(C)c2[nH]ccc2c1C[C@@H]1CCN(CCC(F)F)C[C@H]1c1ccc(C(=O)O)cc1` [Ex-23, 4-((3R,4R)-1-(3,3-difluoropropyl)-4-((5,7-dimethyl-1H-indol-4-yl)methyl)piperidin-3-yl)benzoic acid], with less than 0.1 µM. Then `COc1cc(C)c2[nH]ccc2c1C[C@H]1CCN(CC(F)(F)F)C[C@@H]1c1ccc(C(=O)O)cc1` [Ex-6], with less than 30 µM; and `Cc1cc(C)c2[nH]ccc2c1C[C@@H]1CCN(CC(C)(C)O)C[C@H]1c1ccc(C(=O)O)cc1` [Ex-15, 4-((3R,4R)-4-((5,7-dimethyl-1H-indol-4-yl)methyl)-1-(2-hydroxy-2-methylpropyl)piperidin-3-yl)benzoic acid], with less than 1 µM; and `Cc1cc(C)c2[nH]ccc2c1C[C@@H]1CN(C)C[C@H]1c1ccc(C(N)=O)cc1` (racemic) [Ex-58, Racemic 4-((3R*,4S*)-4-((5,7-dimethyl-1H-indol-4-yl)methyl)-1-methylpyrrolidin-3-yl)benzamide], with less than 30 µM.
